Values quoted from earlier work, collected in US11173064B2, “High-precision drug delivery by dual-domain ocular device” (LYNTHERA CORPORATION, priority 2016, dated 2021).
Counter-ions that a name gives are not always drawn.

Conditions: octanol/water

SMILES | log P
CCNC(=O)CCC/C=C\C[C@@H]1[C@@H](/C=C/[C@@H](O)CCc2ccccc2)[C@H](O)C[C@@H]1O [bimatoprost] | ~3.2
CC(C)(C)NC[C@H](O)COc1nsnc1N1CCOCC1 [timolol maleate] | ~1.4
